Assay results taken from ChEMBL document CHEMBL3994662, “In vivo instability of platensimycin and platencin: Synthesis and biological evaluation of urea- and carbamate-platensimycin” (Bioorg Med Chem, 2017).
In brackets after ≈: the same amount, converted by molar mass. Values belong to the molecule of their own block, whether it stands above or below them.

Legend:
[1] = Cmax in C57Bl/6 mouse at 10 mg/kg, iv administered as single dose by LC-MS/MS analysis; type: ADME, organism-based; set-up: dose 10 mg/kg, route intravenous; settings: in vivo
[2] = Elimination half life in C57Bl/6 mouse at 10 mg/kg, iv administered as single dose by LC-MS/MS analysis; type: ADME, organism-based; settings: in vivo, read-out: beta t1/2 (converted)
[3] = Ratio of drug level in C57Bl/6 mouse kidney to plasma at 10 mg/kg, iv administered as single dose measured after 60 mins by LC-MS/MS analysis; type: ADME, organism-based
Mus musculus [4] = assay: Elimination half life in C57Bl/6 mouse assessed as platensimycin level at 10 mg/kg, iv administered as single dose by LC-MS/MS analysis; type: ADME, organism-based; settings: in vivo
Plasma [5] = assay: Drug metabolism in C57Bl/6 mouse plasma assessed as platensimycin formation at 10 mg/kg, iv administered as single dose measured after 60 mins by LC-MS/MS analysis; type: ADME, organism-based; settings: in vivo, 1 h
[6] = Volume of distribution in C57Bl/6 mouse at 10 mg/kg, iv administered as single dose by LC-MS/MS analysis; type: ADME, organism-based; settings: in vivo
[7] = Ratio of drug level in C57Bl/6 mouse liver to plasma at 10 mg/kg, iv administered as single dose measured after 60 mins by LC-MS/MS analysis; type: ADME, organism-based
[8] = Observed clearance in C57Bl/6 mouse at 10 mg/kg, iv administered as single dose by LC-MS/MS analysis; type: ADME, organism-based; settings: in vivo
[9] = Drug level in C57Bl/6 mouse urine assessed as platensimycin level at 10 mg/kg, iv administered as single dose measured after 60 mins by LC-MS/MS analysis; type: ADME, organism-based; settings: in vivo, 1 h
Mus musculus [10] = assay: Volume of distribution in C57Bl/6 mouse assessed as platensimycin level at 10 mg/kg, iv administered as single dose by LC-MS/MS analysis; type: ADME, organism-based; settings: in vivo
Mus musculus [11] = assay: AUC (0 to 8 hrs) in C57Bl/6 mouse assessed as platensimycin level at 10 mg/kg, iv administered as single dose by LC-MS/MS analysis; type: ADME, organism-based; set-up: dose 10 mg/kg, time < 8 hr, route intravenous; settings: in vivo
Mus musculus [12] = assay: Cmax in C57Bl/6 mouse assessed as platensimycin level at 10 mg/kg, iv administered as single dose by LC-MS/MS analysis; type: ADME, organism-based; set-up: dose 10 mg/kg, route intravenous; settings: in vivo
[13] = Drug level in C57Bl/6 mouse urine at 10 mg/kg, iv administered as single dose measured after 60 mins by LC-MS/MS analysis; type: ADME, organism-based; settings: C57Bl/6, mouse, urine, read-out: Drug uptake
Mus musculus [14] = assay: AUC (0 to 8 hrs) in C57Bl/6 mouse at 10 mg/kg, iv administered as single dose by LC-MS/MS analysis; type: ADME, organism-based; set-up: dose 10 mg/kg, time < 8 hr, route intravenous; settings: in vivo
Plasma [15] = assay: Drug uptake in C57Bl/6 mouse plasma at 10 mg/kg, iv administered as single dose measured after 60 mins by LC-MS/MS analysis; type: ADME, organism-based; settings: in vivo, 1 h
[16] = Drug level in mouse hepatic microsomes treated with platensimycin at 1 uM up to 60 mins in presence of NADPH by LC-MS/MS analysis; type: ADME, Liver, Microsome; settings: 1 h
[17] = Drug level in mouse hepatic microsomes treated with platensimycin at 1 uM up to 60 mins in absence of NADPH by LC-MS/MS analysis; type: ADME, Liver, Microsome; settings: 1 h
Staphylococcus aureus = assay: Antibacterial activity against Staphylococcus aureus ATCC 25923 after 18 hrs by broth dilution method; type: functional; settings: ATCC 25923, 18 h
Micrococcus luteus = assay: Antibacterial activity against Micrococcus luteus ATCC 9431 after 18 hrs by broth dilution method; type: functional; settings: ATCC 9431, 18 h

Cmax [1]: 38 µM
half-life [2]: 1.1 h
Kp at 1 h [3]: 0.2
beta t1/2 (Mus musculus [4]): 1.9 h
Drug metabolism (Plasma [5]): Metabolite_Detected
Vd [6]: 0.33 L/kg
Kp at 1 h [7]: 0.6
clearance [8]: 11 mL/min/kg
Drug uptake [9]: < 1%
Vd (Mus musculus [10]): 2.5 L/kg
AUC (Mus musculus [11]): 6.3 µM·h
Cmax (Mus musculus [12]): 15 µM
dose excreted at 1 h [13]: < 1%
AUC (Mus musculus [14]): 18 µM·h
Drug uptake (Plasma [15]): Active
SMILES: C[C@]12C[C@@]34C=CC(=O)[C@@](C)(CCC(=O)Nc5c(O)ccc(C(=O)S[C@H]6CC(=O)[C@@](C)(CCC(=O)Nc7c(O)ccc(C(=O)O)c7O)[C@@H]7[C@@H]8C[C@@H]9C[C@]67C[C@]9(C)O8)c5O)[C@@H]3[C@H](C[C@@H]1C4)O2

Drug metabolism [16]: Metabolite_Detected
Drug metabolism [17]: Metabolite_Detected
SMILES: C[C@]12C[C@@]34C=CC(=O)[C@@](C)(CCC(=O)O)[C@@H]3[C@H](C[C@@H]1C4)O2

MIC (Staphylococcus aureus): > 64 µg/mL
MIC (Micrococcus luteus): 64 µg/mL (≈ 136 µM)
SMILES: COC(=O)c1ccc(O)c(NC(=O)NCC[C@]2(C)C(=O)C=C[C@]34C[C@H]5C[C@H](O[C@@]5(C)C3)[C@H]42)c1O
